In patent publication EP4759810A1, “PROTAC TARGETING BCL-XL PROTEIN AND USE THEREOF” (BEIJING SUNCELL BIO-MEDICAL CO., LTD., priority 2023, dated 2025):
Where two headings read alike, the source gives them in different places.

How the values were obtained:
[1] = system: Molt-4 cells; test: Molt-4 cell killing activity test (CCK-8); format: cell-based; conditions: for killing Molt-4 cells at different concentrations (Figure 1), in words: 0.001-3 µM, comparison with control molecules; for EC50: Homo sapiens
Outline: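 Molt-4 cells in RPMI-1640 with 10% FBS were exposed to compounds at 0.001–3 µM final, triplicate wells, for three days at 37°C. Viability was read by CCK-8 absorbance at 450 nm after 0.5–2 h, expressed relative to blank control.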

[2] = system: MRC5 cells; test: Senescent cell killing activity test, MRC5 cell model (CCK-8); format: cell-based, human; conditions: for activity for killing senescent cells at lower concentrations compared to A-1331852: 0.01 µM and 0.03 µM; for selectivity for senescent cells: Figures 3G-3L
Procedure: (§1) To avoid replication of the induced senescent cells, low-passage proliferating HEF cells (<10 passages), MRC5 cells (<6 passages), and BJ cells (<10 passages) were used as normal controls. For chemical drug induced senescence, HEF cells were treated with 10 µM etoposide (Selleck, S1225) for 36-48 hours, MRC5 cells were treated with 5 µM bleomycin (Selleck, S1225) for 72 hours, and BJ cells were treated with 10 µg/mL bleomycin for 72 hours. Three days after the treatment, the cells were subcultured in fresh culture medium at a 1:3 ratio for 72 hours before further analysis and use.
(§2) Non-senescent and induced-senescent HEF cells, non-senescent and induced-senescent MRC5 cells, and non-senescent and induced-senescent BJ cells were respectively digested with trypsin, and centrifuged at 1000 rpm for 5 minutes. Then, the supernatant was removed, and the cells were resuspended in fresh DMEM culture medium containing 10% fetal bovine serum for counting. The cell density was adjusted so that the non-senescent cell density was 4000 cells/100 µL and the senescent cell density was 7000 cells/100 µL. 100 µL of the cell suspension was added to each well of a 96-well transparent cell culture plate. It was noted that the edge wells of the 96-well plate were not used as testing wells, and 300 µL of PBS alone was added to these wells to reduce evaporation of the culture medium. The 96-well plates with the well-plated cells were placed back in a 37°C incubator for overnight culture until the cells adhered. On the next day, the small molecule compounds to be tested were prepared and added after the cells had adhered.
(§3) A series of small molecule concentration gradients (0.01, 0.03, 0.1, 0.3, 1, 3, 10, and 25 µM) were pre-set, and a series of 2× drug dilutions for the above concentrations were prepared in DMEM culture medium containing 10% fetal bovine serum. 100 µL of the above DMEM culture medium containing the gradient concentrations of the drug was added to each well of the 96-well plate that had been well-plated with cells, so that the final drug concentration in each well was the pre-set series of concentrations. Three replicate wells were used for each test drug concentration. The 96-well plates were placed back in a 37°C incubator, and cell viability was measured after three days.
(§4) Three days after adding the drug, the plates were taken out, and the supernatant was discarded. 100 µL of pre-prepared CCK-8 working solution was added to each well. The CCK-8 working solution was obtained through diluting a CCK-8 stock solution (C0041, Beyotime) with a serum-free DMEM culture medium by 10-fold volumn. The 96-well plates containing the CCK-8 working solution were placed back in the 37°C incubator and incubated for 0.5-2 hours. The plates were then taken out, and the absorbance value (OD value) of each well was measured at a wavelength of 450 nm. The cell viability in each experimental group was calculated according to the following formula: Relative cell viability (%) = (Blank control group - Experimental group) / Blank control group × 100%.

[3] = target: T1, Bcl-xL protein (Homo sapiens, UniProt Q07817); test: Degradation experiment of Bcl-xL target protein (Western blot in Molt-4 cells); format: cell-based; conditions: 100 nM, 0, 2, 6, 16 h, GAPDH internal control, Figure 4
T1 construct: host or cells: Molt-4 cells
Procedure: Actively growing and healthy Molt-4 cells were subcultured into a fresh RPMI-1640 medium containing 10% fetal bovine serum, and each PROTAC molecule was added thereto at a final concentration of 100 nM. After drug treatment for the specified times (0, 2, 6, and 16 hours), the cells were collected, the supernatant was discarded by centrifugation, and the cells were washed twice with pre-cooled PBS buffer. Total protein was extracted with a lysis buffer (Servicebio, G2002-100ML), and the protein concentration was normalized by using a BCA protein quantification kit (Servicebio, G2026). Protein samples were mixed with a protein-loading buffer and incubated at 95°C for 5 minutes. Western blotting experiments were performed by using the following antibodies: Bcl-xL (Abcam, catalog number ab32370), diluted at 1:500; GAPDH antibody (Servicebio, catalog number GB15004), diluted at 1:1000; and horseradish peroxidase-conjugated goat anti-rabbit secondary antibody (Servicebio, catalog number GB23303), diluted at 1:5000.

[4] = system: BJ cells; test: Senescent cell killing activity test, BJ cell model (CCK-8); format: cell-based, human; conditions: Figures 3M-3O; for killing effects for senescent cells: bleomycin-induced senescent skin-derived BJ cell model
Procedure: as §1, §2, §3, §4

[5] = system: Molt-4 cells; test: Detection of E3 enzyme-dependence: Molt-4 cell killing with or without pomalidomide (CCK-8); format: cell-based; conditions: 10 µM pomalidomide, Figure 2
Procedure: Actively growing and healthy Molt-4 cells were collected, centrifuged at 1000 rpm for 5 minutes, and after removing the supernatant, the cells were resuspended in fresh RPMI-1640 medium containing 10% fetal bovine serum. Cell counting was then performed. The cell density was adjusted to 120,000 cells per milliliter, and 100 µL of the cell suspension was added to each well of a 96-well transparent cell culture plate. It was noted that the edge wells of the 96-well plate were not used for testing, and 300 µL of PBS alone was added to these wells to reduce medium evaporation.
Molt-4 cells were plated in duplicate according to the number of the tested small molecules, so as to test the effects with and without the addition of pomalidomide (a competitive ligand specific for E3 ligase), in which one half of the parallel cells was added 10 µM pomalidomide. A series of small molecule concentration gradients (0.001, 0.003, 0.01, 0.03, 0.1, 0.3, 1, and 3 µM) were pre-set, and a series of 2× drug dilutions for the above concentrated were prepared in DMEM medium containing 10% fetal bovine serum. 100 µL of the above DMEM medium containing the gradient concentrations of the drug was added to 96-well plates that have been pre-plated with cells, so that the final drug concentration in each well was the pre-set series of concentrations respectively. Three replicate wells were used for each test drug concentration. The 96-well plates were placed back in a 37°C incubator, and the cell viability was detected after three days.
Cell viability after drug treatment was detected by using the CCK-8 method: three days after adding the drugs, the plates were taken out, and the supernatant was discarded. Then, 100 µL of pre-prepared CCK-8 working solution was added to each well. The CCK-8 working solution was obtained through diluting a CCK-8 stock solution (C0041, Beyotime) by 10-fold volumn with a serum-free DMEM culture medium. The 96-well plates with the added CCK-8 working solution were placed back in the 37°C incubator and incubated for 0.5-2 hours. The plates were then taken out, and the absorbance value (OD value) of each well was measured at a wavelength of 450 nm. The cell viability in each experimental group was calculated according to the following formula: Relative cell viability (%) = (Blank control group - Experimental group) / Blank control group × 100%.

[6] = Metabolic stability assay in liver microsomes (mouse); format: in vitro ADME
Procedure: (§5) The metabolic reaction of compounds in liver microsome was performed in a system with a total volume of 400 µL, and the following steps below were sequentially performed for the reaction and detection: 1) 200 µL of phosphate buffer (200 mM), 106 µL of sterile ultrapure water, and 40 µL of magnesium chloride solution (50 mM) were added to each detection tube to prepare a reaction working solution. 2) Two reaction systems with or without adding NADPH were prepared for each compound to be tested. For the reaction system with adding NADPH: 10 µL of liver microsomes (20 mg/mL) and 40 µL of NADPH (10 mM) were added to the above working solution; for the reaction system without adding NADPH: 10 µL of liver microsomes (20 mg/mL) and 40 µL of sterile ultrapure water were added to the above working solution. The final concentration of liver microsomes in both reaction systems was 0.5 mg/mL. 3) 4 µL of the compound to be tested ([…]) was added to each reaction tube, resulting in a final concentration of 1 µM for the compound in the reaction system. The detection tubes were placed at 37°C for reaction. 4) 50 µL samples were taken from each detection tube at 0, 15, 30, 45, and 60 minutes after adding the compound. The reaction was terminated by adding cold acetonitrile containing IS (100 nM alprazolam, 200 nM labetalol, 200 nM caffeine, and 2 µM ketoprofen) in a 4× volume. The samples were centrifuged at 3220 g for 40 minutes, 100 µL of the supernatant was mixed with 100 µL of ultrapure water, and a sample was taken for LC-MS/MS analysis.
(§6) Calculation of in vitro liver microsomal metabolic half-life and in vitro metabolic intrinsic clearance rate: The LC-MS detection results were analyzed to obtain the percentage of the remaining amount of the tested compound relative to the initial amount at each time point. The natural logarithm of the remaining percentage was linearly fitted against the incubation time.

[7] = system: platelets; test: In vivo platelet toxicity test in mice; conditions: intraperitoneal
Procedure: The in vivo platelet toxicity test was performed by using 5-6 week old female C57BL/6J mice. The C57BL/6J mice were purchased from Beijing Vital River Laboratory Animal Technology Co., Ltd. and housed under specific pathogen-free (SPF) conditions, with a 12-hour light/12-hour dark cycle, and free access to food and water. […] Different doses of the molecules to be tested (e.g., 0.1, 0.5, 2.5 mg/kg or 2, 5, 20 mg/kg) were prepared in advance with the aforementioned vehicle, and administered to mice via intraperitoneal injection at a volume of 200 µL for each mouse. After administration was completed, approximately 50 µL of blood was collected from each mouse at different time points via the intra-canthus sampling method into EDTA anticoagulant tubes (RAM Scientific), then a routine analysis of blood was performed by using a hematology analyzer, and the platelets was counted.

[8] = system: HEF cells; test: Senescent cell killing activity test, HEF cell model (CCK-8); format: cell-based, human; conditions: for toxicity on normal non-senescent HEF cells: higher concentration (25 µM)
Procedure: as §1, §2, §3, §4

[9] = Metabolic stability assay in liver microsomes (human); format: in vitro ADME
Procedure: as §5, §6

[10] = 72 h, Molt-4 cells, three days, CCK-8, read-out: EC50 (Molt-4)
[11] = Bcl-xL-positive Molt-4 cells, read-out: cellular activity / killing activity (Molt-4 cells)
[12] = mouse liver microsomes 0.5 mg/mL, 1 µM compound, 37°C
[13] = human liver microsomes 0.5 mg/mL, 1 µM compound, 37°C

T1 sequence (Q07817 whole entry): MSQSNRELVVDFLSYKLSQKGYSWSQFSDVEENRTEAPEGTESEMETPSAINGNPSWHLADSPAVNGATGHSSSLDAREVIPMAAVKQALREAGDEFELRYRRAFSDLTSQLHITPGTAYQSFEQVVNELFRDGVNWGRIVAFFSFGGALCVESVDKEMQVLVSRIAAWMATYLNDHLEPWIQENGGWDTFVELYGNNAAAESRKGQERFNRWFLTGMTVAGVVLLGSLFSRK

SMILES	killing Molt-4 cells at different concentrations (Figure 1), in words [1]	EC50 [1, 10] [nM]	EC50 [1, 11] [nM]	activity for killing senescent cells at lower concentrations compared to A-1331852 [2]	selectivity for senescent cells [2]	degradation of the Bcl-xL protein [3]	killing effects for senescent cells [4]	killing effect for the normal early-passage BJ cells [4]	cell killing activity after addition of pomalidomide (+poma) compared to without (-poma) [5]	toxicity on normal non-senescent HEF cells [8]	other results
O=C1CCN(c2ccc(N3CCN(CC#Cc4ccc(OCCCc5ccc(N6CCc7cccc(C(=O)Nc8nc9ccccc9s8)c7C6)nc5C(=O)O)c(F)c4)CC3)cc2F)C(=O)N1 [APQ902]	comparable to A-1331852	< 10	< 10	superior to that of A-1331852	better selectivity for senescent cells	had the ability to degrade the Bcl-xL protein	highly selective and potent killing effects for senescent cells	without significant killing effect for the normal early-passage BJ cells	significantly reduced cell killing activity	–	–
Cc1c(-c2ccc(N3CCc4cccc(C(=O)Nc5nc6ccccc6s5)c4C3)nc2C(=O)O)cnn1CC12CC3CC(CC(C3)C1)C2 [Compound A-1331852, A-1331852, reference compound]	highest cellular activity in the test	< 10	–	–	–	–	–	–	–	toxic killing effects on normal non-senescent HEF cells	clearance rate (metabolic clearance rate) ([6]; mouse liver microsomes): 18.43 µL/min/mg; Clint [6, 12]: 18.43 µL/min/mg protein; T1/2 [6, 12]: 75.21 min; toxicity on platelets ([7]; 0.5 mg/kg, Figure 5A): severe toxicity on platelets; platelet number in peripheral blood ([7]; 5 mg/kg, Figure 5B): below 100 × 10^9/L; clearance rate (metabolic clearance rate) ([9]; human liver microsomes): 53.07 µL/min/mg; Clint [9, 13]: 53.07 µL/min/mg protein; T1/2 [9, 13]: 26.12 min
O=C1CCN(c2ccc(N3CCC(CN4CCN(CC#Cc5ccc(OCCCc6ccc(N7CCc8cccc(C(=O)Nc9nc%10ccccc%10s9)c8C7)nc6C(=O)O)c(F)c5)CC4)CC3)cc2F)C(=O)N1 [APQ10-3]	comparable to A-1331852	< 10	< 10	–	–	–	highly selective and potent killing effects for senescent cells	without significant killing effect for the normal early-passage BJ cells	–	–	–
O=C1CCN(c2ccc(N3CCN(CC#Cc4ccc(OCCCc5ccc(N6CCc7cccc(C(=O)Nc8nc9ccccc9s8)c7C6)nc5C(=O)O)c(F)c4)CC3)cc2)C(=O)N1 [APQ9]	comparable to A-1331852	< 10	< 10	superior to that of A-1331852	better selectivity for senescent cells	had the ability to degrade the Bcl-xL protein	–	–	significantly reduced cell killing activity	no toxicity on normal non-senescent HEF cells	platelet number in peripheral blood, in words ([7]; 5 mg/kg, Figure 5B): slightly decrease in platelet number; activity for killing senescent cells at lower concentrations compared to A-1331852 ([8]; HEF cell model, 0.01 µM and 0.03 µM): better activity for killing senescent cells at lower concentrations; killing senescent HEF cells ([8]; etoposide-induced senescent vs normal HEF cells, Figures 3A-3F): efficiently and selectively kill senescent HEF cells
